Consider 1 sequence from patent publication US20110306554A1, “PEPTIDE CAPABLE OF BINDING TO IMMUNOGLOBULIN” (priority 2009, published 2011).

The test system of the experiment is Monoclonal antibody cocktail-induced arthritis mice. Kind of experiment: Arthritis suppressing effects on arthritis-induced mice, Part 3. The format is in vivo. To be noted: 10 mg/kg intravenously once a day from day 4, 10 days. As to the method: Monoclonal antibody cocktail-induced arthritis mice were used to examine arthritis suppressing effects of peptides which are indicated as R13 and R17 in the section (3) in Example 2. Arthritis was caused by intravenous administration of 2 mg/mouse of an arthritis-inducing monoclonal antibody cocktail and three days later, intraperitoneal administration of 50 μg/mouse of LPS. The peptides were given via intraperitoneal or intravenous administration at a dose of 10 mg/kg once a day for a period of 10 consecutive days from four days after the administration of the arthritis-inducing monoclonal antibody cocktail, and arthritis suppressing effect was examined in terms of clinical score and hind-limb volume determination.
The required amount was calculated for each peptide, based on the animal weight. Each peptide solution was prepared using physiological saline (at 0.1 mg/ml for R1, 1 mg/ml for R2, and 1 or 10 mg/ml for R13 and R17), and cold stored. […]
Results of examinations were expressed by mean value±standard error and analyzed using EXSAS (Version 7.1.6, Arm Systex Co., Ltd.). […] Quantitative data, such as body weights and leg volumes, were subjected to Bartlett's test, followed by Dunnett's multiple comparison test when the variance was uniform or Steel's multiple comparison test when the variance was not uniform.

For “KFTSKVPGLYYFVYH (Immunoglobulin binding peptide) [R17]”, the “arthritis-suppressing effect (clinical score)” value is “arthritis-suppressing effects comparable to those of the groups receiving administration of R1 (intravenously) or R2 (intraperitoneally)”.
